# According to patent US11116771B2, “G protein-coupled receptor (GPCR) modulation by imipridones” (Oncoceutics, Inc., priority 2016, dated 2021):
# “Also recorded” adds a separate entry of the source. Like-named read-outs stand apart in the source and are kept apart here.
# Tests used:
# [1] = system: NCI60 cancer cell line panel; assay: NCI60 cancer cell line panel; type: cell-based; details: NCI60 panel (FIG. 16)
# [2] = system: Staphylococcus aureus ATCC 700699; assay: MIC by micro-broth dilution, S. aureus ATCC 700699; type: cell-based; details: Staphylococcus aureus, ATCC700699, ATCC 700699 (48 hours); for MIC90: read-out: MIC90; for MIC99: read-out: MIC99
# MV411 AML cells = assay: Cell viability, MV411 AML cells; type: cell-based
# HFF (Normal Fibroblast) = assay: Cell viability, HFF normal fibroblasts
# [3] = Rat non-GLP oral single dose study; type: in vivo
# MOLM14 AML cells = assay: Cell viability, MOLM14 AML cells; type: cell-based
# [4] = system: DRD2 (short and long isoforms); assay: β-arrestin recruitment GPCR reporter assay, DRD2; type: cell-based
# K562 (CML) = assay: Cell viability, K562; type: cell-based; details: Homo sapiens, 5 nM-5 μM, 72 h, n=3
# [5] = system: Staphylococcus aureus ATCC 29213; assay: MIC by micro-broth dilution, S. aureus ATCC 29213; type: cell-based; details: ATCC29213; for MIC90: read-out: MIC90; for MIC99: read-out: MIC99
# human cancer cells = assay: Viability of human cancer cells at 72 hours post-treatment; type: cell-based; details: relative to the potency of ONC201; viability of human cancer cells at 72 hours post-treatment
# [6] = system: Staphylococcus aureus ATCC 33591; assay: MIC by micro-broth dilution, S. aureus ATCC 33591; type: cell-based; details: ATCC33591; for MIC90: read-out: MIC90; for MIC99: read-out: MIC99
# [7] = system: Ewing's sarcoma cell lines; assay: Anti-cancer efficacy in Ewing's sarcoma cell lines; type: cell-based; details: 16 Ewing's sarcoma cell lines (FIG. 20)
# [8] = system: MHH-ES-1 (Ewing's sarcoma); assay: Cell viability, MHH-ES-1; type: cell-based; details: Homo sapiens, 5 nM-5 μM, 72 h, n=3
# MV411 AML xenograft = MV411 AML xenograft model; type: in vivo, athymic nude mice
# HCT116 cells = assay: Anticancer efficacy in HCT116 cells; type: cell-based, human
# leukemia cell lines = assay: Anti-cancer efficacy in leukemia cell lines; type: cell-based; details: 55 leukemia cell lines regardless of subtype (FIG. 26)
# [9] = system: human fetal lung fibroblast (MRC-5) cells; details: MRC5; nanomolar concentrations (FIG. 22)
# [10] = Mouse tolerability (non-GLP oral single dose / MTD study); type: in vivo
# Experimental: ONC212 25 mg/kg represents NOAEL in mouse and rat non-GLP oral single dose studies which is also the efficacious dose in mouse xenograft studies. […].
# Dual targeting of DRD2/3 and GPR132/91 represents a novel strategy for anti-cancer efficacy without toxicity. […] […]. […] […].
# GPR132 = biological target: T1, GPR132 (Homo sapiens, UniProt Q9UNW8); assay: β-arrestin recruitment GPCR reporter assay, GPR132; type: cell-based
# T1 sequence (Q9UNW8 1-380): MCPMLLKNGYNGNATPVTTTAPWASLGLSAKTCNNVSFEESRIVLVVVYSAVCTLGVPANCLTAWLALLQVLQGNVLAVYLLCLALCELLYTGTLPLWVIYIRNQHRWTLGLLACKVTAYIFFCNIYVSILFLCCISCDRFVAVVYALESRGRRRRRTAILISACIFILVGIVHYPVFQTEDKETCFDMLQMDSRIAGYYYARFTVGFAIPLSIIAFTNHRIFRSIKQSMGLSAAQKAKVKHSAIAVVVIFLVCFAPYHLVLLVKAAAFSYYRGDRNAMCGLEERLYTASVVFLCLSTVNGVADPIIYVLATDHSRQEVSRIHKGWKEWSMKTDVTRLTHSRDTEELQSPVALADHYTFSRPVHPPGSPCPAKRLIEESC
# HL60 = assay: Cell viability, HL60 AML cell line; type: cell-based; details: Homo sapiens, HL-60, 72 h
# [11] = system: MRC5 lung fibroblasts and Hs27a bone marrow cells; assay: Cell viability of normal cells treated with ONC212; type: cell-based; details: 5 nM-5 μM, 72 h (FIG. 29B)
# [12] = system: human colon cancer xenograft; assay: Human colon cancer xenograft in mice; type: in vivo; details: single dose, oral or intraperitoneal (FIG. 24)
# [13] = wild type Staphylococcus aureus (ATCC 29213), read-out: MIC
# [14] = Staphylococcus aureus, ATCC 29213, 24 hours
# [15] = Staphylococcus aureus, ATCC 29213, 24 hours, read-out: MIC95
# [16] = Staphylococcus aureus, ATCC 29213, 24 hours, read-out: MIC, Visual
# [17] = Staphylococcus aureus (ATCC 33591), methicillin resistant, read-out: MIC
# [18] = Staphylococcus aureus, ATCC 33591, 24 hours
# [19] = Staphylococcus aureus, ATCC 33591, 24 hours, read-out: MIC95
# [20] = Staphylococcus aureus, ATCC 33591, 24 hours, read-out: MIC, Visual
SMILES,anti-cancer efficacy across tumor types [1],MIC90 [2] [µg/mL],MIC ([2]; read-out: MIC95) [µg/mL],MIC99 [2] [µg/mL],"MIC ([2]; read-out: MIC, Visual) [µg/mL]","GPCR activity, DRD2 [4]","MIC [5, 13] [µg/mL]","MIC90 [5, 14] [µg/mL]","MIC [5, 15] [µg/mL]","MIC99 [5, 14] [µg/mL]","MIC [5, 16] [µg/mL]","MIC [6, 17] [µg/mL]","MIC90 [6, 18] [µg/mL]","MIC [6, 19] [µg/mL]","MIC99 [6, 18] [µg/mL]","MIC [6, 20] [µg/mL]",further results
O=C1C2=C(CCN(Cc3ccccc3)C2)N2CCN=C2N1Cc1ccc(F)cc1F [ONC206],demonstrated anti-cancer efficacy,12.5,12.5,25,12.5,improved DRD2 antagonism,6.25,6.25,6.25,6.25,6.25,12.5,12.5,25,> 100,12.5,"IC50 (MV411 AML cells; Homo sapiens, MV4-11, MV411, 5 nM-5 μM, 72 h, n=3): 200 nM; fold improvement compared to ONC201 in in vitro potency (MV411 AML cells; cell lines of Table 12): up to 20 fold; IC50 (HFF (Normal Fibroblast); Homo sapiens, Fibroblast, 72 h): > 5000 nM; in vitro toxicity to normal cells (HFF (Normal Fibroblast); Table 12): no in vitro toxicity to normal cells at therapeutic doses; NOAEL ([3]; rat non-GLP oral single dose study): 125 mg/kg; IC50 (MOLM14 AML cells; Homo sapiens, MOLM-14, 5 nM-5 μM, 72 h, n=3): 270 nM; IC50 (K562 (CML)): 220 nM; Relative Potency* (human cancer cells): A (A Indicates a potency increase of >2-fold of ONC201); anti-cancer efficacy [7]: nanomolar range in 14 out of 16; also recorded: superior efficacy compared to ONC201 in all cell lines; IC50 [8]: 610 nM"
O=C1C2=C(CCN(Cc3ccccc3)C2)N2CCN=C2N1Cc1ccc(C(F)(F)F)cc1 [ONC212],demonstrated anti-cancer efficacy,6.25,12.5,12.5,12.5,does not engage DRD2,3.13,3.13,3.13,3.13,3.12,3.13,3.13,6.25,100,3.12,"body weight loss or gross observations (MV411 AML xenograft; all ONC212 regimens (FIG. 30C)): None of these ONC212 administration regimens were associated with body weight loss; leukemia xenograft tumor growth (MV411 AML xenograft; biweekly dosing with 25 mg/kg, oral (FIG. 30B)): not efficacious; leukemia xenograft tumor growth (MV411 AML xenograft; oral weekly administration, ONC212 50 mg/kg, ONC201 at similar doses (FIG. 30A)): significantly reduced; leukemia xenograft tumor growth (MV411 AML xenograft; weekly/biweekly dosing with 5 mg/kg, oral (FIG. 30B)): not efficacious; fold more potent compared to ONC201 (MV411 AML cells; AML cell lines in vitro (Table 11)): up to 400 fold; efficacy in AML cells resistant to standard of care cytarabine (MV411 AML cells; MV411, 5 nM-5 μM, 24 h (FIG. 29A)): efficacious; cell viability after 8 hr exposure (MV411 AML cells; MV411, ONC212 at 250 nM, viability determined at 96 h (FIG. 29C)): robust reduction in cell viability; cell death in cancer cells (HCT116 cells; HCT116, nanomolar concentrations (FIG. 22)): induced cell death; IC50 (HCT116 cells; Homo sapiens, HCT-116, HCT116 cells): 10 nM; NOAEL ([3]; rat, in vivo, po): 25 mg/kg; cell viability after 8 hr exposure (MOLM14 AML cells; ONC212 at 250 nM, viability determined at 96 h (FIG. 29C)): robust reduction in cell viability; anti-cancer efficacy (leukemia cell lines): nanomolar range; cell death in normal cells [9]: not normal cells; NOAEL ([10]; in vivo, mouse, non-GLP oral single dose study / MTD study): 25 mg/kg; well tolerated dose ([10]; mice): ≥ 225 mg/kg; GPCR activity, GPR132 (GPR132): highly selective agonist; IC50 (HL60): 210 nM; toxicity to normal cells [11]: non-toxic to normal cells at efficacious concentrations; tumor volume compared to vehicle-treated control [12]: significant reduction of tumor volume"
